Measurements from publication PMC8867545 (ACS Omega, 2022).

Experiments:
β-glucosidase (β-Glcase) [1] = experiment: UV-vis absorption at […] nm, Lineweaver-Burk; assay type: biochemical, Prunus dulcis; details: 1x PBS pH 5.33, room temperature, 100 μg/mL enzyme, 5-200 μM substrate
β-glucosidase (β-Glcase) [2] = experiment: UV-vis absorption at […] nm, Lineweaver-Burk; assay type: biochemical, Prunus dulcis; details: 1x PBS pH 5.33, room temperature, 100 μg/mL enzyme, 10-500 μM substrate

Km (β-glucosidase (β-Glcase) [1]) | Km (β-glucosidase (β-Glcase) [2]) | Structure (SMILES)
162 µM | – | N#Cc1ccc(S[C@@H]2O[C@H](CO)[C@@H](O)[C@H](O)[C@H]2O)nc1 [Glc-p-MPN]
– | 228 µM | N#Cc1cccnc1S[C@@H]1O[C@H](CO)[C@@H](O)[C@H](O)[C@H]1O [Glc-o-MPN]
